Experimental data: publication PMC7179653 (Antimicrobial Agents and Chemotherapy, 2020)
Where two headings read alike, the source gives them in different places.

How the values were obtained:
[1] = MAD study: nacubactam pharmacokinetics, multiple doses and single dose alone or with meropenem; type: in vivo, human; conditions: for CL renal at 7 days / CL renal: plasma and urine; for AUC(0-t): read-out: AUC0–8h; for Tmax at 7 days: day 7, n = 6, median (range)
Procedure: The MAD study consisted of three parts (Fig. 1). […] Participants were enrolled in two sequential cohorts (cohort 1, followed by cohort 2). […] Participants were also enrolled in two sequential cohorts (cohort 3, followed by cohort 4). […] A washout period of approximately 24 h between treatments was provided. Study treatments were administered as 30-min (SAD study) or 90-min (MAD study) i.v. infusions, the latter to investigate the pharmacokinetics using a longer infusion time, which is commonly used to increase the time above the MIC of β-lactams ([15]). The choice of a 90-min infusion time for the MAD study was dictated by the stability and toxicology data available at the time the study was being designed. […] Safety assessments included monitoring of AEs, laboratory safety tests (hematology, serum chemistry, and urinalysis), 12-lead ECG (discrete recordings and 24-h Holter recording), and vital signs (blood pressure, pulse rate, and body temperature). In the SAD study, safety assessments were performed predose at screening, at day 1, postdose periodically on days 1, 2, and 7 (follow-up), and at early withdrawal, if relevant. […] In the MAD study, safety assessments were done predose at screening, at day 2, postdose periodically on days 1, 2, 4, 7, and 8, on days 13 to 15 (follow-up), and at early withdrawal, if relevant. […] On all other days, a single predose sample was collected for pharmacokinetic evaluation prior to the morning infusion. Blood was collected into lithium-heparin tubes and stored at a nominal –80°C temperature until analysis.

[2] = Intensive ECG monitoring and exposure-response analysis of QTcF; type: in vivo, human
Procedure: Safety assessments included monitoring of AEs, laboratory safety tests (hematology, serum chemistry, and urinalysis), 12-lead ECG (discrete recordings and 24-h Holter recording), and vital signs (blood pressure, pulse rate, and body temperature). In the SAD study, safety assessments were performed predose at screening, at day 1, postdose periodically on days 1, 2, and 7 (follow-up), and at early withdrawal, if relevant. […] In the MAD study, safety assessments were done predose at screening, at day 2, postdose periodically on days 1, 2, 4, 7, and 8, on days 13 to 15 (follow-up), and at early withdrawal, if relevant. […] On all other days, a single predose sample was collected for pharmacokinetic evaluation prior to the morning infusion. Blood was collected into lithium-heparin tubes and stored at a nominal –80°C temperature until analysis.

[3] = MAD part 3, single dose (day 1 or 2) nacubactam 2,000 mg alone, geometric mean (%CV)
[4] = MAD part 3, single dose (day 3) nacubactam 2,000 mg plus meropenem 2,000 mg, geometric mean (%CV)
[5] = human, plasma, intravenous, 1000 mg, MAD part 1, 1,000 mg q8h for 7 days, day 7, n = 6, geometric mean (%CV)
[6] = human, plasma, intravenous, 2000 mg
[7] = human, plasma, intravenous, 2000 mg, MAD part 1, 2,000 mg q8h for 7 days, day 7, n = 6, geometric mean (%CV)
[8] = human, plasma, intravenous, 2000 mg, MAD part 3, single dose (day 1 or 2) nacubactam 2,000 mg alone, geometric mean (%CV)
[9] = human, plasma, intravenous, 4000 mg, MAD part 2, 4,000 mg q8h for 7 days, day 9, n = 6, geometric mean (%CV)
[10] = human, plasma, intravenous, MAD part 3, single dose (day 3) nacubactam 2,000 mg plus meropenem 2,000 mg, geometric mean (%CV)

NCCONC(=O)[C@@H]1CC[C@@H]2CN1C(=O)N2OS(=O)(=O)O [Nacubactam]
Fe%0–8h (cumulative percentage of dose excreted in urine from time zero to 8 h) ([1]; MAD part 1, 1,000 mg q8h for 7 days, day 7, n = 6, geometric mean (%CV)): 81.9 (1) %
Fe%0–8h (cumulative percentage of dose excreted in urine from time zero to 8 h) ([1]; MAD part 1, 2,000 mg q8h for 7 days, day 7, n = 6, geometric mean (%CV)): 87.0 (11) %
Fe%0–8h (cumulative percentage of dose excreted in urine from time zero to 8 h) ([1]; MAD part 2, 4,000 mg q8h for 7 days, day 9, n = 6, geometric mean (%CV)): 83.9 (9) %
Fe%0–8h (cumulative percentage of dose excreted in urine from time zero to 8 h) [1, 3]: 85.5 (13) %
Fe%0–24h (cumulative percentage of dose excreted in urine from time zero to 24 h) [1, 3]: 91.1 (10) %
Fe%0–8h (cumulative percentage of dose excreted in urine from time zero to 8 h) [1, 4]: 82.7 (12) %
Fe%0–24h (cumulative percentage of dose excreted in urine from time zero to 24 h) [1, 4]: 88.4 (11) %
accumulation in plasma ([1]; following 7 days of q8h dosing): minimal accumulation
route of elimination ([1]; following single and multiple doses): excreted largely unchanged into urine
contribution of nonrenal elimination processes on clearance ([1]; from difference between CL and CLR): < 20%
CL renal at 7 days ([1]; human, intravenous, 1000 mg, MAD part 1, 1,000 mg q8h for 7 days, day 7, n = 6, geometric mean (%CV)): 112 mL/min
CL renal at 7 days ([1]; human, intravenous, 2000 mg, MAD part 1, 2,000 mg q8h for 7 days, day 7, n = 6, geometric mean (%CV)): 104 mL/min
CL renal ([1]; human, intravenous, 2000 mg, MAD part 3, single dose (day 1 or 2) nacubactam 2,000 mg alone, geometric mean (%CV), read-out: CLR (converted)): 142 mL/min
CL renal at 7 days ([1]; human, intravenous, 4000 mg, MAD part 2, 4,000 mg q8h for 7 days, day 9, n = 6, geometric mean (%CV)): 113 mL/min
CL renal ([1]; human, intravenous, MAD part 3, single dose (day 3) nacubactam 2,000 mg plus meropenem 2,000 mg, geometric mean (%CV), read-out: CLR (converted)): 135 mL/min
CL renal ([1]; human, intravenous, single (1,000 to 8,000 mg) and multiple (1,000 to 4,000 mg) doses, read-out: estimated CLR, range): 91.7 to 142 mL/min
Cmax at 7 days [1, 5]: 36.6 µg/mL
half-life [1, 5]: 2.66 h
AUC(0-t) [1, 5]: 118 µg·h/mL
clearance ([1]; human, plasma, intravenous, 1000 mg, MAD part 1, 1,000 mg q8h for 7 days, day 7, n = 6, geometric mean (%CV), read-out: CL (converted)): 142 mL/min
Vd at 7 days ([1]; human, plasma, intravenous, 1000 mg, MAD part 1, 1,000 mg q8h for 7 days, day 7, n = 6, geometric mean (%CV), read-out: Vss): 21.9 L
Tmax at 7 days ([1]; human, plasma, intravenous, 1000 mg, MAD part 1, 1,000 mg q8h for 7 days): 1 h
AUC(0-inf) [1, 6]: 225 µg·h/mL
Cmax [1, 6]: 66 µg/mL
Tmax [1, 6]: 1 h
Cmax at 7 days [1, 7]: 89.6 µg/mL
half-life [1, 7]: 2.66 h
AUC(0-t) [1, 7]: 279 µg·h/mL
clearance ([1]; human, plasma, intravenous, 2000 mg, MAD part 1, 2,000 mg q8h for 7 days, day 7, n = 6, geometric mean (%CV), read-out: CL (converted)): 119 mL/min
Vd at 7 days ([1]; human, plasma, intravenous, 2000 mg, MAD part 1, 2,000 mg q8h for 7 days, day 7, n = 6, geometric mean (%CV), read-out: Vss): 16.5 L
half-life [1, 8]: 2.63 h
AUC(0-t) [1, 8]: 201 µg·h/mL
clearance ([1]; human, plasma, intravenous, 2000 mg, MAD part 3, single dose (day 1 or 2) nacubactam 2,000 mg alone, geometric mean (%CV), read-out: CL (converted)): 148 mL/min
Tmax at 7 days ([1]; human, plasma, intravenous, 2000 mg, MAD part 1, 2,000 mg q8h for 7 days): 1.33 h
Vd ([1]; human, plasma, intravenous, 2000 mg, read-out: Vss): 26.2 L
Cmax at 7 days [1, 9]: 179 µg/mL
half-life [1, 9]: 2.69 h
AUC(0-t) [1, 9]: 496 µg·h/mL
clearance ([1]; human, plasma, intravenous, 4000 mg, MAD part 2, 4,000 mg q8h for 7 days, day 9, n = 6, geometric mean (%CV), read-out: CL (converted)): 134 mL/min
Vd at 7 days ([1]; human, plasma, intravenous, 4000 mg, MAD part 2, 4,000 mg q8h for 7 days, day 9, n = 6, geometric mean (%CV), read-out: Vss): 20.1 L
half-life [1, 10]: 2.38 h
AUC(0-t) [1, 10]: 204 µg·h/mL
clearance ([1]; human, plasma, intravenous, MAD part 3, single dose (day 3) nacubactam 2,000 mg plus meropenem 2,000 mg, geometric mean (%CV), read-out: CL (converted)): 149 mL/min
clearance ([1]; human, plasma, intravenous, single (1,000 to 8,000 mg) and multiple (1,000 to 4,000 mg) doses, read-out: estimated CL, range on average): 120 to 148 mL/min
treatment estimate, linear model of change in QTcF vs plasma concentration ([2]; 90% CI, 3.8879 to 1.9931, P = 0.59): 0.9474
slope estimate, linear model of change in QTcF vs plasma concentration ([2]; P = 0.73): 0.00422
upper limit of the two-sided 90% CI of predicted change from baseline in QTcF ([2]; at the Cmax of 325 μg/ml, each of the three models): < 10 ms
predicted mean change from baseline in QTcF ([2]; at the Cmax of 325 μg/ml, each of the three models (linear, quadratic, log-linear)): < 3 ms
effect on QTc interval duration, other ECG intervals, or ECG morphology ([2]; nacubactam alone, intensive ECG monitoring): did not reveal any significant effects
